Experimental findings from patent US20250320206A1, “STAT6 DEGRADERS” (Gilead Sciences, Inc., priority 2024, published 2025) are described below.

Where only a bound is given, the exact number is not on record here.

The target of the first experiment is T1, STAT6 (Homo sapiens, UniProt P42226).
T1 construct: These cells express endogenous STAT6; host or cells: HeLa LgBiT clone 4.14
T1 sequence (P42226 1-847): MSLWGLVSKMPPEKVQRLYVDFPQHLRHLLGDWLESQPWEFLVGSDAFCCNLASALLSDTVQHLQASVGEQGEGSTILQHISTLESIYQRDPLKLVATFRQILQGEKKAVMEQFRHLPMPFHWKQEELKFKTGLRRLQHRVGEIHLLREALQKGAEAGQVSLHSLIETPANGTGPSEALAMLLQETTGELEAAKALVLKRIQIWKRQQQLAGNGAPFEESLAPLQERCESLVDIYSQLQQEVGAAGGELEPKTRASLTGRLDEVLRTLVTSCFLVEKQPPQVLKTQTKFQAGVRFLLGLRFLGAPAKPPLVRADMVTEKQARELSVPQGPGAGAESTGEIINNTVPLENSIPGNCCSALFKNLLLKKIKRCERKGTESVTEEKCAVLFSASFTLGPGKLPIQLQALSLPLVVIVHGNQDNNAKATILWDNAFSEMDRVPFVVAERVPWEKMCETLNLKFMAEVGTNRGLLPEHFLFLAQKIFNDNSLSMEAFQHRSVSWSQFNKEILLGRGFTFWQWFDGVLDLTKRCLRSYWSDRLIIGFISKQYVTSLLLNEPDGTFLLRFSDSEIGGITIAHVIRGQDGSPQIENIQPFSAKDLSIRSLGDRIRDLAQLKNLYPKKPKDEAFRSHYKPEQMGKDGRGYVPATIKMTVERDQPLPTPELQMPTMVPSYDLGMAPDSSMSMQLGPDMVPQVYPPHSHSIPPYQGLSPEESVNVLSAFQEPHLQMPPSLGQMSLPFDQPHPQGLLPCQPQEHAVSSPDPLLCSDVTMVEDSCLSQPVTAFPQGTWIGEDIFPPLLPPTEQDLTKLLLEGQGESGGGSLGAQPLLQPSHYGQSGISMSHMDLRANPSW
Put plainly: Stat6 Degrader Assay (HiBiT based, HeLa LgBiT clone 4.14). In kind it is cell-based. As to conditions: HeLa LgBiT clone 4.14 HiBiT-STAT6, 4-24 h incubation; read-out: STAT6 degradation Emax. In outline: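 Luminescence from HiBiT-STAT6 complementing stably expressed LgBiT in HeLa clone 4.14 reports remaining STAT6 protein. Cells (5000/well) exposed to compound for 4-24 h at 37° C; read 0.5 h after Nano-Glo addition. 100% degradation window set with 50 μM terfenadine; percent degradation plotted against concentration.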
On to `CNc1cc(=O)n(-c2ccnc3c2cc([C@H](C)N2CC=C(c4c(C)cc(C(=O)N5CCC(CN6CCN(Cc7ccc8c(c7)n(C7CC7)c(=O)n8C7CCC(=O)NC7=O)C[C@@H]6C)CC5)cc4F)CC2)n3C)cc1OC` (stereo partly drawn) [Example 3u134, 3-(3-cyclopropyl-5-(((S)-4-((1-(3-fluoro-4-(1-((S)-1-(4-(5-methoxy-4-(methylamino)-2-oxopyridin-1 (2H)-yl)-1-methyl-1H-pyrrolo[2,3-b]pyridin-2-yl)ethyl)-1,2,3,6-tetrahydropyridin-4-yl)-5-methylbenzoyl)piperidin-4-yl)methyl)-3-methylpiperazin-1-yl)methyl)-2-oxo-2,3-dihydro-1H-benzo[d]imidazol-1-yl)piperidine-2,6-dione], for which the Emax was in the range of 20 to 30%.

With `CNc1nc(=O)n(-c2ccnc3c2cc(CN2CCC(c4c(F)cc(C(=O)N5CCC(CN6CCN(c7cc8c(cc7F)n(C7CCC(=O)NC7=O)c(=O)n8C)CC6)CC5)cc4F)CC2)n3C)cc1F` (stereo not drawn) [Example 3u261, 3-(5-(4-((1-(3,5-difluoro-4-(1-((4-(5-fluoro-4-(methylamino)-2-oxopyrimidin-1 (2H)-yl)-1-methyl-1H-pyrrolo[2,3-b]pyridin-2-yl)methyl)piperidin-4-yl)benzoyl)piperidin-4-yl)methyl)piperazin-1-yl)-6-fluoro-3-methyl-2-oxo-2,3-dihydro-1H-benzo[d]imidazol-1-yl)piperidine-2,6-dione], the Emax is under 20%.

`CNc1cc(=O)n(-c2ccnc3c2cc(CN2CCC(c4c(F)cc(C(=O)N5CCC(OCC#Cc6ccc7c(c6)n(C)c(=O)n7C6CCC(=O)NC6=O)CC5)cc4F)CC2)n3C)cc1F` (stereo not drawn) [Example 3u262, 3-(5-(3-((1-(3,5-difluoro-4-(1-((4-(5-fluoro-4-(methylamino)-2-oxopyridin-1 (2H)-yl)-1-methyl-1H-pyrrolo[2,3-b]pyridin-2-yl)methyl)piperidin-4-yl)benzoyl)piperidin-4-yl)oxy)prop-1-yn-1-yl)-3-methyl-2-oxo-2,3-dihydro-1H-benzo[d]imidazol-1-yl)piperidine-2,6-dione]: the Emax was in the range of 30 to 40%.

On to `CNc1cc(=O)n(-c2ccnc3c2cc(CN2CCC(c4c(F)cc(C(=O)N5CCC(CCn6cc(-c7ccc8c(c7)n(C)c(=O)n8C7CCC(=O)NC7=O)nn6)CC5)cc4F)CC2)n3C)cc1F` (stereo not drawn) [Example 3u263, 3-(5-(1-(2-(1-(3,5-difluoro-4-(1-((4-(5-fluoro-4-(methylamino)-2-oxopyridin-1 (2H)-yl)-1-methyl-1H-pyrrolo[2,3-b]pyridin-2-yl)methyl)piperidin-4-yl)benzoyl)piperidin-4-yl)ethyl)-1H-1,2,3-triazol-4-yl)-3-methyl-2-oxo-2,3-dihydro-1H-benzo[d]imidazol-1-yl)piperidine-2,6-dione], for which the Emax is 70 to 80%.

As to `C[C@H](c1cc2c(-n3ccc4[nH]ncc4c3=O)ccnc2n1C)N1CCC(c2ccc(C(=O)N3CCC(CN4CCN(Cc5ccc6c(c5)oc(=O)n6C5CCC(=O)NC5=O)CC4)CC3)cc2)CC1` (stereo partly drawn) [Example 3u265, 3-(6-((4-((1-(4-(1-((R)-1-(1-methyl-4-(4-oxo-1,4-dihydro-5H-pyrazolo[4,3-c]pyridin-5-yl)-1H-pyrrolo[2,3-b]pyridin-2-yl)ethyl)piperidin-4-yl)benzoyl)piperidin-4-yl)methyl)piperazin-1-yl)methyl)-2-oxobenzo[d]oxazol-3 (2H)-yl)piperidine-2,6-dione], the Emax is under 20%.

The experiment is the same for the next values; noted with them: HeLa LgBiT clone 4.14 HiBiT-STAT6, 4-24 h incubation; values given for compounds with >80% Emax; geometric mean; read-out: STAT6 degradation DC50.
`Cc1cc(C(=O)N2CCC(CN3CCN(Cc4ccc5c(c4)n(C4CC4)c(=O)n5C4CCC(=O)NC4=O)C[C@@H]3C)CC2)cc(F)c1C1=CCN([C@@H](C)c2cc3c(-n4ccc5c(c4=O)CCN5)ccnc3n2C)CC1` (stereo partly drawn) [Example 3u143, 3-(3-cyclopropyl-5-(((S)-4-((1-(3-fluoro-5-methyl-4-(1-((S)-1-(1-methyl-4-(4-oxo-1,2,3,4-tetrahydro-5H-pyrrolo[3,2-c]pyridin-5-yl)-1H-pyrrolo[2,3-b]pyridin-2-yl)ethyl)-1,2,3,6-tetrahydropyridin-4-yl)benzoyl)piperidin-4-yl)methyl)-3-methylpiperazin-1-yl)methyl)-2-oxo-2,3-dihydro-1H-benzo[d]imidazol-1-yl)piperidine-2,6-dione]: the DC50 turned out to be 0.7 nM.

Turning to `CNc1ccn(-c2ccnc3c2cc(CN2CCC(c4c(C)cc(C(=O)N5CCC(CN6CCN(Cc7ccc8c(c7)n(C)c(=O)n8C7CCC(=O)NC7=O)CC6)CC5)cc4F)CC2)n3C)c(=O)c1` (stereo not drawn) [Example 3u158, 3-(5-((4-((1-(3-fluoro-5-methyl-4-(1-((1-methyl-4-(4-(methylamino)-2-oxopyridin-1 (2H)-yl)-1H-pyrrolo[2,3-b]pyridin-2-yl)methyl)piperidin-4-yl)benzoyl)piperidin-4-yl)methyl)-piperazin-1-yl)methyl)-3-methyl-2-oxo-2,3-dihydro-1H-benzo[d]imidazol-1-yl)piperidine-2,6-dione], the DC50 turned out to be 24.1 nM.

Turning to `CNc1ccn(-c2ccnc3c2cc(CN2CC=C(c4c(C)cc(C(=O)N5CCC(CN6CCN(Cc7ccc8c(c7)n(C)c(=O)n8C7CCC(=O)NC7=O)CC6)CC5)cc4F)CC2)n3C)c(=O)c1` (stereo not drawn) [Example 3u163, 3-(5-((4-((1-(3-fluoro-5-methyl-4-(1-((1-methyl-4-(4-(methylamino)-2-oxopyridin-1 (2H)-yl)-1H-pyrrolo[2,3-b]pyridin-2-yl)methyl)-1,2,3,6-tetrahydropyridin-4-yl)benzoyl)piperidin-4-yl)methyl)piperazin-1-yl)methyl)-3-methyl-2-oxo-2,3-dihydro-1H-benzo[d]imidazol-1-yl)piperidine-2,6-dione], the DC50 was found to be 4.4 nM.

Turning to `CNc1ccn(-c2ccnc3c2cc([C@H](C)N2CC=C(c4c(C)cc(C(=O)N(C)C5CCC(C6CCN(Cc7ccc8c(c7)n(C)c(=O)n8C7CCC(=O)NC7=O)CC6)CC5)cc4F)CC2)n3C)c(=O)c1` (stereo partly drawn) [Example 3u252, N-(4-(1-((1-(2,6-dioxopiperidin-3-yl)-3-methyl-2-oxo-2,3-dihydro-1H-benzo[d]-imidazol-5-yl)methyl)piperidin-4-yl)cyclohexyl)-3-fluoro-N,5-dimethyl-4-(1-((S)-1-(1-methyl-4-(4-(methylamino)-2-oxopyridin-1 (2H)-yl)-1H-pyrrolo[2,3-b]pyridin-2-yl)ethyl)-1,2,3,6-tetrahydropyridin-4-yl)benzamide], the DC50 was found to be 0.4 nM.

For the compound `CNc1ccn(-c2ccnc3c2cc([C@H](C)N2CC=C(c4c(C)cc(C(=O)N5CCC(CN6CCN(Cc7ccc8c(c7)C(F)(F)C(=O)N8C7CCC(=O)NC7=O)CC6)CC5)cc4F)CC2)n3C)c(=O)c1` (stereo partly drawn) [Example 3u255, 3-(3,3-difluoro-5-((4-((1-(3-fluoro-5-methyl-4-(1-((S)-1-(1-methyl-4-(4-(methylamino)-2-oxopyridin-1 (2H)-yl)-1H-pyrrolo[2,3-b]pyridin-2-yl)ethyl)-1,2,3,6-tetrahydropyridin-4-yl)benzoyl)piperidin-4-yl)methyl)piperazin-1-yl)methyl)-2-oxoindolin-1-yl)piperidine-2,6-dione], the DC50 came to 13.7 nM.

For `CNc1ccn(-c2ccnc3c2cc([C@H](C)N2CC=C(c4c(C)cc(C(=O)N5CCn6nc(CC7CCN(c8ccc9c(c8)n(C8CC8)c(=O)n9C8CCC(=O)NC8=O)CC7)cc6C5)cc4F)CC2)n3C)c(=O)c1` (stereo partly drawn) [Example 3u259, 3-(3-cyclopropyl-5-(4-((5-(3-fluoro-5-methyl-4-(1-((S)-1-(1-methyl-4-(4-(methylamino)-2-oxopyridin-1 (2H)-yl)-1H-pyrrolo[2,3-b]pyridin-2-yl)ethyl)-1,2,3,6-tetrahydropyridin-4-yl)benzoyl)-4,5,6,7-tetrahydropyrazolo[1,5-a]pyrazin-2-yl)methyl)piperidin-1-yl)-2-oxo-2,3-dihydro-1H-benzo[d]imidazol-1-yl)piperidine-2,6-dione], the DC50 was 0.5 nM.

As to `CNc1ccn(-c2ccnc3c2cc(CN2CCC(c4c(F)cc(C(=O)N5CCC(CN6CCN(C(=O)c7ccc8c(c7)n(C)c(=O)n8C7CCC(=O)NC7=O)CC6)CC5)cc4F)CC2)n3C)c(=O)c1` (stereo not drawn) [Example 3u264, 3-(5-(4-((1-(3,5-difluoro-4-(1-((1-methyl-4-(4-(methylamino)-2-oxopyridin-1 (2H)-yl)-1H-pyrrolo[2,3-b]pyridin-2-yl)methyl)piperidin-4-yl)benzoyl)piperidin-4-yl)methyl)piperazine-1-carbonyl)-3-methyl-2-oxo-2,3-dihydro-1H-benzo[d]imidazol-1-yl)piperidine-2,6-dione], the DC50 was found to be 5.9 nM.
